Non-standard residues stand in square brackets, D forms with d. Residues, ends and D or L forms follow the SMILES beside them. Dap = NC[C@H](N)C(=O)O
What was measured:
[1] = system: ribonuclease A; test: Enzymatic activity of ribonuclease A after treatment with methylglyoxal and inhibitors (methylene blue RNA staining); type: biochemical; conditions: ribonuclease A treated with methylglyoxal (MG) + inhibitor in equimolar quantity, 37° C.; control RNase 100, RNase + methylglyoxal 10.11%
Protocol: (§1) Ribonuclease A and lysozyme (10 mg/ml) are incubated in the presence of methylglyoxal (10 mM) or in the presence of methylglyoxal and one of the inhibitors according to the present invention in an equimolar quantity at 37° C. After 48 hours of incubation, the proteins are analyzed by polyacrylamide gel electrophoresis (8%-16% SDS PAGE gel).
The enzymatic activity of ribonuclease A after treatment with methylglyoxal and the various inhibitors according to the present invention is measured using the methylene blue RNA staining technique of Greiner-Stöffele et al. (Anal. Biochem. (1996) 240, 24).

[2] = system: ribonuclease A; test: SDS PAGE electrophoresis of ribonuclease A incubated with methylglyoxal and inhibitor; type: biochemical
Protocol: as §1
The AGE inhibitors according to the present invention, namely L-DAPA-L-Leu (example 1) and L-DAPA-L-Ile (example 18), or AG (10 mM) are incubated with MG and ribonuclease A for […] at 37° C.

[3] = system: EA.hy 926 cell line; test: Growth of EA.hy 926 endothelial cells with MG scavengers and/or methylglyoxal (MTT); type: cell-based, human; conditions: for viability at 1000 µM: Homo sapiens, EA.hy 926, scavenger 1 mM + methylglyoxal 600 μM, relative to untreated control cells, MG alone 24, read-out: Cells + MG scavengers + Methylglyoxal (B); for viability at 1000 µM / Cells + MG scavengers (A): 48 hours, mean of 3 experiments; for Difference (B) − (A): Table 2, cells with scavenger + MG minus cells with scavenger alone; for Cells + MG scavengers (A): scavenger 1 mM, no methylglyoxal, number of cells relative to untreated control cells; for effect against suppression of cell growth by MG: scavenger + methylglyoxal
Protocol: The cells used for the test are from the EA.hy 926 cell line, which are endothelial cells obtained by the hybridization of human umbilical vein endothelial cells (HUVECs) with lung cancer cells (A549). The EA.hy 926 endothelial cells are incubated in Dulbecco's modified Eagle's Medium (DMEM) enriched with 10% fetal calf serum. The cells are incubated in 12-well plates. Each well initially contains 100,000 cells. Cell growth is achieved by incubating the cells in 2 ml of culture medium after adding or not adding the various potential inhibitors (1 mM) and/or methylglyoxal (600 μM) for 48 hours at 37° C. in a moist atmosphere with 5% CO2.
The number of cells is evaluated in the following way:
The cells are stained using the (4,5-dimethylthiazol-2-yl)-2,5-diphenyltetrazolium bromide (MTT) assay. MTT penetrates in the cell where it is converted into formazan. The quantity of formazan formed is proportional to the number of living cells.
The results are expressed as a relative percentage of the number of cells after treatment compared to the number of control cells without treatment [100*OD (treated cells)/OD (control cells)]. Detection is carried out by UV/visible spectrophotometry at 570 nm.
Principle: MTT (yellow) penetrates the cell and is converted into an insoluble blue compound, formazan, by cleavage of its tetrazolium rings by the mitochondrial dehydrogenase enzymes of living cells. Formazan is solubilized by isopropanol. The number of cells is proportional to the quantity of formazan formed and its absorbance.

[4] = Battah et al. 2002; cited from earlier work
[5] = system: Human insulin; test: Modification of insulin by methylglyoxal (HPLC); type: biochemical; conditions: insulin 0.034 mM, methylglyoxal 3.4 mM, scavenger 4.08 mM, pH 7.45, 37° C.
Protocol: FIG. 1 presents the comparative effects of dicarbonyl scavengers in the form of dihydrochloride according to the present invention and the comparison with DAPA on the modification of insulin (Ins) by methylglyoxal (MG). The percentage of insulin is indicated following incubation with methylglyoxal in the presence or absence of dicarbonyl scavengers. Insulin (0.034 mM) is incubated in vitro in a 10 mM phosphate buffer, pH 7.45 (containing 0.1 M NaCl) with methylglyoxal (3.4 mM) in the presence of dicarbonyl scavengers (4.08 mM) for 21 hours at 37° C. Insulin concentration is measured by HPLC (same conditions as in FIG. 3).
FIGS. 3 to 8 present the results obtained by HPLC for two compounds according to the present invention, L-DAPA-L-Leu (example 1) and L-DAPA-L-Val (example 23), on insulin modifications induced by methylglyoxal. It can be observed that these modifications are prevented. The HPLC conditions are as follows: C-18, Symmetry 300 (4.6×250 mm) column, injection volume 100 μl of reaction mixture; flow 1 ml/min; temperature 40° C.; solvent A: H2O+0.1% TFA; solvent B: 60/40 CH3CN/H2O+0.1% TFA; linear gradient of 50% B to 55% B in 15 minutes; detection: UV at 215 nm: PDA (chromatograms extracted at 220 nm).
Human insulin (Ins) is incubated with methylglyoxal (MG) under physiological conditions. After 24 hours, the insulin is completely modified, as illustrated in FIG. 1 (Ins+MG).
On the other hand, insulin is incubated with methylglyoxal in the presence of an equimolar quantity of the AGE inhibitors according to the present invention under physiological conditions.

[6] = Mutagenicity of DAPA (statement, no method given); conditions: no test described
[7] = system: lysozyme; test: SDS PAGE electrophoresis of lysozyme incubated with methylglyoxal and inhibitor; type: biochemical; conditions: lysozyme 10 mg/ml, methylglyoxal 10 mM, inhibitor equimolar, 37° C., 48 hours
Protocol: as §1

[8] = system: seven strains of Salmonella (six mixed strains, strain TA98); test: Ames test with and without human liver S9 fractions; type: cell-based; parameters: key to Six mixed strains / Strain TA98: −: non-mutagenic; +: mutagenic; conditions: for Six mixed strains / Strain TA98: mixture with methylglyoxal, 10/1/0.1 μM
Protocol: An Ames test was performed with L-DAPA-L-Leu (example 1) and L-DAPA-L-Val (example 23) alone and in combination with methylglyoxal on human liver S9 fractions and on seven strains of Salmonella.
The concentrations used in the Ames test were as follows: • L-DAPA-L-Leu alone or L-DAPA-L-Val alone: 10 μM, 1 μM and 0.1 μM. • L-DAPA-L-Leu/methylglyoxal mixture or L-DAPA-L-Val/methylglyoxal mixture: 10 μM, 1 μM and 0.1 μM. • Methylglyoxal: 10 μM.

[9] = system: RNase A; test: RNase A modifications induced by methylglyoxal (HPLC); type: biochemical; conditions: RNase A 0.08 mM, methylglyoxal 32 mM, compound 38 mM, 21 hours at 37° C.
Protocol: FIGS. 11 to 13 present the results obtained by HPLC for three compounds according to the present invention, L-DAPA-L-Ile (example 18), L-DAPA-L-Val (example 23) and L-DAPA-L-Leu (example 1), on RNase A modifications induced by methylglyoxal. HPLC conditions are as follows: C-18, Symmetry 300 (4.6×250 mm) column, injection volume 100 μl of reaction mixture diluted to 1/10; flow 1 ml/min; temperature 40° C.; solvent A: H2O+0.1% TFA; solvent B: 60/40 CH3CN/H2O+0.1% TFA; linear gradient of 20% B to 80% B in 20 minutes; detection: UV at 215 nm: PDA (chromatograms extracted at 215 nm).

[10] = system: somatostatin-14; test: Somatostatin-14 modifications induced by methylglyoxal (HPLC); type: biochemical; conditions: somatostatin-14 0.03 mm, methylglyoxal 3.6 mM, compound 4.3 mM, 24 hours at 37° C.
Protocol: FIGS. 9 and 10 present the results obtained by HPLC for two compounds according to the present invention, L-DAPA-L-Leu (example 1) and L-DAPA-L-Val (example 23), on somatostatin-14 modifications induced by methylglyoxal. HPLC conditions are as follows: C-18, Symmetry 300 (4.6×250 mm) column, injection volume 100 μl of reaction mixture; flow 1 ml/min; solvent A: H2O+0.1% TFA; solvent B: 80/20 CH3CN/H2O+0.1% TFA; linear gradient: from 20% B to 60% B in 15 minutes and isocratic from 60% B for 10 minutes; ambient temperature; detection: PDA (chromatograms extracted at 215 nm).
In these figures, (a) represents the results of somatostatin-14 alone; (b) represents the results of somatostatin-14+methylglyoxal; (c) represents the results of somatostatin-14+methylglyoxal+L-DAPA-L-Val (example 23) and (d) represents the results of somatostatin-14+methylglyoxal+L-DAPA-L-Leu (example 1).

N=C(N)NN [Aminoguanidine, aminoguanidine, reference compound]
Enzymatic activity (%) [1]: 70.52% | protecting effect against structural modifications of ribonuclease A induced by MG, compared with the inhibitors of the invention ([2]; 10 mM, 40 hours at 37° C.): much less effective | viability at 1000 µM [3]: 92% | Difference (B) − (A) [3]: −5 | Cells + MG scavengers (A) [3]: 97% | effect against suppression of cell growth by MG [3]: suppresses this process in a spectacular manner | better scavenger of methylglyoxal compared with metformin (factor) [4]: 450

NCC(N)C(=O)O [D-DAPA, 2,3-diaminopropionic acid, reference compound]
Enzymatic activity (%) [1]: 20.32% | cell survival when incubated with MG [3]: 68% | viability at 1000 µM [3]: 68% | Difference (B) − (A) [3]: −15 | toxicity with respect to EA cells ([3]; compound alone, 1 mM): cytotoxicity is higher | Cells + MG scavengers (A) [3]: 83% | modification of insulin by methylglyoxal [5]: prevents the modification of insulin by MG | mutagenicity [6]: appears to be mutagenic

CC(C)[C@H](NC(=O)[C@@H](N)CN)C(=O)O [example 23, L-DAPA-L-Val.2HCl] (H-[Dap]-Val-OH)
protection from structural modifications (dimer form) caused by methylglyoxal [7]: provides protection | Enzymatic activity (%) [1]: 90.77% | Six mixed strains ([8]; Human S9: No): − | Strain TA98 ([8]; Human S9: No): − | Six mixed strains ([8]; Human S9: Yes (metabolites)): − | Strain TA98 ([8]; Human S9: Yes (metabolites)): − | mutagenicity ([8]; alone or in combination with methylglyoxal, TA98, mixed strains, human liver S9 fractions): neither substance (L-DAPA-L-Leu or L-DAPA-L-Val) was mutagenic | protection from structural modifications (dimer form) caused by methylglyoxal ([2]; ribonuclease A 10 mg/ml, methylglyoxal 10 mM, inhibitor equimolar, 37° C., 48 hours): provides protection | cell survival when incubated with MG [3]: 93% | viability at 1000 µM [3]: 93% | Difference (B) − (A) [3]: −1 | Cells + MG scavengers (A) [3]: 94% | effect against suppression of cell growth by MG [3]: same trend | difference between number of cells growing with compound and with MG and compound ([3]; values in brackets): −3 | modification of insulin by methylglyoxal [5]: prevented | RNase A modifications induced by methylglyoxal [9]: prevent the modifications to RNase A | somatostatin-14 modifications induced by methylglyoxal [10]: prevent the modifications induced by methylglyoxal

From patent US9512176B2, “Age inhibitors” (Centre National de la Recherche Scientifique, priority 2005, dated 2016)
